Marks after values point to notes of the source that are not given here.
Columns and labels:
[1] = Weight gain, feed efficiency and carcass characteristics, last 14 days of growing period in broiler chickens; type: in vivo
Source text: Approximately 1500 Peterson-Hubbard, day-old, male chicks were used in a randomized, complete-block design with 4 treatments (Control, Clenbuterol at 1 PPM, and Compound 6 at 3 and 15 PPM (mg/kg feed)). The testing facility contained 36 pens, divided equally into 6 blocks. Treatments were randomly allotted to pens within each block. Each treatment consisted of 6 pens with 10 birds per pen.
Day-of-age birds were obtained from Pine Manor Hatchery in Goshen, Ind. Approximately 40 birds per pen were set at random upon receipt. On day 30 of the growout period, all birds were weighed and the 15 birds closest to the block mean were selected. These birds were allowed to acclimate until day 35 of age. On that day, all remaining birds were weighed again, and the 10 birds/pen closest to the block mean were chosen for the treatment phase. Birds were provided ad libitum access to feed and water throughout the trial. All birds were fed a 23% crude protein corn-soy ration from day 1 until day 18 of age. The feed was changed to a 20% crude protein corn-soy ration from day 18 to day 49. The treatment feed was mixed using the same 20% crude protein basal ration. Treatments were administered in the feed from day 35 through day 49. Feed consumption was calculated over the entire 14-day treatment period. Birds were weighed at trial completion (day 49), and transported to Purdue University, West Lafayette, Ind. 47907, U.S.A. meat laboratory for slaughter and carcass measurements on day 50. Weights of the hot carcass, fat pad, and viscera were taken on all animals.

[2] = Intravenous administration to cattle: serum non-esterified fatty acid (NEFA) and serum urea nitrogen (SUN) levels; type: in vivo; details: for ΔNEFA 24 Hours / change in vivo at 0.04 mg/kg: 40 μg per kilogram i.v. twice; for ΔNEFA 24 Hours: T+24 h minus T=0; for ΔNEFA 24 Hours / ΔNEFA 15 Min. / change in vivo at 0.04 mg/kg: mean of five animals; for ΔNEFA 15 Min.: 40 μg per kilogram i.v., T+15 min minus T=0; for change in vivo at 0.04 mg/kg: Bos taurus, iv, 24 hours post treatment vs baseline T=0, read-out: Δ% SUN 24 Hours; for lipolytic effects (non-esterified fatty acid levels): fifteen minutes and twenty-four hours after administration; for anabolic effects (change in serum urea nitrogen levels): twenty-four hours after administration, compared with the corresponding carboxamide regioisomers
Source text: Intravenous administration of the compounds of the present invention to cattle increases serum non-esterified fatty acids and decreases serum urea. In this Example, angus/angus cross calves, both heifers and steers, weighing approximately 282 pounds (128 kg) initially to 788 pounds (357.8 kg) over the course of these studies, were placed in pens at 5 calves per pen. The cattle were acclimated to the pens for at least 1 week prior to initiating the study.
Calves were fed ad libitum twice daily, (approximately 6-15 pounds (2.7-6.8 kg)/day). During the treatment day, in the A.M. period, the feeding times were staggered to ensure that all animals were fed approximately one hour before the treatments were administered. During the P.M. treatment period, the cattle were fed immediately after receiving the P.M. injection.
After taking a pretreatment (T=O) blood sample from each animal, a 40 μg per kilogram dose of a test compound was administered intravenously in the jugular vein at 6:30 A.M. and 2:30 P.M. Each test compound was administered at a concentration of 1.00-1.25 mg/ml in a treatment vehicle that was a 50/50 mixture of polyethylene glycol 200/water.
A blood sample was taken at fifteen minutes post-treatment (T+15 min). The calves were returned to their respective pens until their next treatment, approximately eight hours later. The next morning at 6:30 A.M. a blood sample was collected from all calves at 24 hours post-treatment (T+24 h). All blood samples were analyzed for the non-esterified fatty acid level (NEFA) and serum urea nitrogen level (SUN). The post-treatment NEFA and SUN levels in each individual animal were compared with the levels found before treatment.

Compound	ΔNEFA 24 Hours [2] [µmol/L]	ΔNEFA 15 Min. [2] [µmol/L]	change in vivo at 0.04 mg/kg [2] [%]	also measured
CC(C)(C)NCC(O)c1cc(Cl)c(N)c(Cl)c1 (stereo not drawn) [Clenbuterol, reference compound]				Dressing Percentage ([1]; 1 PPM in feed, day 35-49): 72.77**; Fat Pad Weight ([1]; 1 PPM in feed, day 35-49): 26.86 g; Final Weight ([1]; 1 PPM in feed, day 35-49): 3.02 kg; Hot Carcass Weights ([1]; 1 PPM in feed, day 35-49): 2191.64** g; Pen Feed Intake ([1]; 1 PPM in feed, day 35-49): 25.20 kg; Total 14 day Weight Gain ([1]; 1 PPM in feed, day 35-49): 1.29 kg; Viscera Weight ([1]; 1 PPM in feed, day 35-49): 285.45 g; Feed Efficiency F/G ([1]; 1 PPM in feed, day 35-49, pen feed intake/total pen weight): 1.99; increase in weight gain over control ([1]; 1 PPM, 14-day treatment period, P=0.1430): 2.38%; improvement of feed efficiency versus control ([1]; 1 PPM, 14-day treatment period, P=0.7320): 0.50%; increase in hot carcass weights compared to control ([1]; 1 PPM, P=0.0027): 3.25%; decrease in viscera weights with respect to control ([1]; 1 PPM, P=0.7215): 0.66%
CC(C)(Cc1ccc(Oc2ccc(C(N)=O)cn2)cc1)NC[C@H](O)COc1cccc2[nH]c(=S)[nH]c12 [Compound 3]	200.2	379.4	-38.2	
CC(C)(Cc1ccc(Oc2ccc(C(N)=O)cn2)cc1)NC[C@H](O)COc1cccc2[nH]ccc12 [Compound 5]	-5.6	170.8	-28.6	
CC(C)(Cc1ccc(Oc2cccc(Cl)c2C(N)=O)cc1)NC[C@H](O)COc1cccc2[nH]c(C#N)cc12 [Compound 13]	32.1	118.1	-36.7	
CC(C)(Cc1ccc(Oc2ccc(C(N)=O)cn2)cc1)NC[C@H](O)COc1cccc2[nH]c(=O)[nH]c12 [Compound 7]	-4.2	134.1	-9.7	
Cc1c[nH]c2cccc(OC[C@@H](O)CNC(C)(C)Cc3ccc(Oc4ncccc4C(N)=O)cc3)c12 [Compound 12]	-63.7	332.6	-30.1	
CC(C)(Cc1ccc(Oc2ccccc2C(N)=O)cc1)NC[C@H](O)COc1cccc2[nH]ccc12 [Compound 9]	-15.4	99	-37	
CC(C)(Cc1ccc(Oc2ncccc2C(N)=O)cc1)NC[C@H](O)COc1cccc2[nH]c(=O)[nH]c12 [Compound 8]	35.6	321.4	-14.2	lipolytic effects (non-esterified fatty acid levels) [2]: modest lipolytic effects; anabolic effects (change in serum urea nitrogen levels) [2]: significantly greater
CC(C)(Cc1ccc(Oc2ncccc2C(N)=O)cc1)NC[C@H](O)COc1cccc2[nH]c(=S)[nH]c12 [Compound 4]	265.3	283.1	-57	lipolytic effects (non-esterified fatty acid levels) [2]: modest lipolytic effects; anabolic effects (change in serum urea nitrogen levels) [2]: significantly greater
CC(C)(Cc1ccc(Oc2cccc(Cl)c2C(N)=O)cc1)NC[C@H](O)COc1cccc2[nH]ccc12 [Compound 10]	-72.7	52.7	-20.7	
CC(C)(Cc1ccc(Oc2ccc(Cl)cc2C(N)=O)cc1)NC[C@H](O)COc1cccc2[nH]ccc12 [Compound 11]	-14.1	94	-39.4	
CC(C)(Cc1ccc(Oc2ccc(C(N)=O)cn2)cc1)NC[C@H](O)COc1cccc2[nH]ncc12 [Compound 1]	820.9	554.4	-28.7	
CC(C)(Cc1ccc(Oc2ncccc2C(N)=O)cc1)NC[C@H](O)COc1cccc2[nH]ncc12 [Compound 2]	742.4	141.2	-39.3	lipolytic effects (non-esterified fatty acid levels) [2]: modest lipolytic effects; anabolic effects (change in serum urea nitrogen levels) [2]: significantly greater
